Measured values taken from patent US20160106813A1 (CENTRE NATIONAL DE LA RECHERCHE SCHIENTIFIQUE (CNRS), priority 2013, published 2016).
Ends that are not written are not given here.

Assays:
HIV-1 = details: agent added during co-culture; dose-dependent
Procedure: Normal goat IgG, neutralizing CCL3/MIP-1α goat Ab (R&D systems, Minneapolis, Minn., USA), or the NFκB inhibitor BAY117082 (Santa Cruz Biotechnology, Santa Cruz, Calif., USA), were included during the co-culture period (MDLC-TC) described previously. HIV-1 replication was measured in the co-culture supernatants a week later by p24 ELISA (Innotest; Innogenetics, Gent, Belgium).

CCL3/MIP-1α = CCL3/MIP-1α levels in LC-TC co-culture supernatants, multiplex assay and flow cytometry; type: cell-based, human; details: highest concentration of BAY117082, n=4
HIV-1 JRCSF = experiment: HIV-1 transfer from monocyte-derived Langerhans cells (MDLC) to CD4+ T-cells, p24 ELISA of co-culture supernatants; type: cell-based
Procedure: Peripheral blood mononuclear cells (PBMCs) from healthy donors were separated from whole blood by a standard Ficoll gradient. CD14+ monocytes and CD4+ TCs were obtained from PBMCs by negative magnetic selection (Stemcell Technologies, Grenoble, France) according to the manufacturer's instructions. MDLC were prepared and maintained as described (Masterson et al., Blood 100:701-703; Geissmann et al., J Exp Med 187:961-966.)

Q: How did the “effect on CGRP-mediated HIV-1 transfer inhibition” value (HIV-1) turn out when Cc1ccc(S(=O)(=O)/C=C/C#N)cc1 [BAY117082] was run?
A: The value was “abrogated”.

Q: And the “CGRP-induced CCL3/MIP-1α secretion in presence of inhibitor, mean±s.e.m fold” value (CCL3/MIP-1α)?
A: Its value is 1.0±0.1 fold.

Q: Which “HIV-1 transfer from Langerhans cells to TCs (in words)” value (HIV-1 JRCSF; MDLCs pretreated with the peptide, pulsed with HIV-1 JRCSF (R5), co-cultured a week with CD4+ TCs) does the source give for “Ala-Cys-Asn-Thr-Ala-Thr-Cys-Val-Thr-His-Arg-Leu-Ala-Gly-Leu-Leu-Ser-Arg-Ser-Gly-Gly-Met-Val-Lys-Ser-Asn-Phe-Val-Pro-Thr-Asn-Val-Gly-Ser-Lys-Ala-Phe-NH2 (ACNTATCVTHRLAGLLSRSGGMVKSNFVPTNVGSKAF-NH2; ends and bridges not checked) [beta CGRP]” here?
A: Its value is “inhibit HIV-1 transfer”.

Q: “CGRP8-37: truncated CGRP receptor antagonist (VTHRLAGLLSRSGGVVKNNFVPTNVGSKAF; ends and bridges not checked; UniProt P06881 90-119, looked up, fragment)” was tested. Which “effect on the inhibitory effect of CGRP on HIV-1 transfer” value (HIV-1 JRCSF; 1000 nM CGRP8-37 added 10 min before CGRP) did it give?
A: Its value is “completely abrogated”.
